Reference: PMC6684654 (Nature Communications, 2019)
In brackets after ≈: the same amount, converted by molar mass.

Assays:
Assay type in all cases: cell-based
[1] = system: NDM-1 K. pneumoniae XJ155017; assay: Antibiotic susceptibility (MIC), automated identification system; conditions: Supplementary Table 2
Source text: (§1) Clinical isolate strains were identified and screened by the Phoenix 100 automated bacterial identification system to rapidly detect antimicrobial resistance. Total DNA was extracted by the TIANamp Bacteria DNA Kit according to the manufacturer’s protocol. The presence of blaNDM-1 was confirmed using a diagnostic kit for NDM-1 (Puruikang Bio Inc., Shenzhen, China) based on fluorescent quantitative polymerase chain reaction assay. According to the instruction, Ct values of less than 37 were considered positive.

K. pneumoniae ATCC13883 [2] = assay: as above; conditions: Supplementary Table 2
Source text: as §1

NDM-1 E. coli XJ141026 [3] = assay: as above; conditions: Supplementary Table 1
Source text: as §1

E. coli ATCC25922 [4] = assay: as above; conditions: Supplementary Table 1
Source text: as §1

[5] = system: NDM-1 K. pneumoniae XJ155018; assay: as above; conditions: Supplementary Table 2
Source text: as §1

NDM-1 E. coli XJ141047 [6] = assay: as above; conditions: Supplementary Table 1
Source text: as §1

[7] = system: NDM-1 K. pneumoniae XJ155020; assay: as above; conditions: Supplementary Table 2
Source text: as §1

NDM-1 E. coli XJ141015 [8] = assay: as above; conditions: Supplementary Table 1
Source text: as §1

[9] = system: NDM-1 K. pneumoniae XJ155019; assay: as above; conditions: Supplementary Table 2
Source text: as §1

[10] = system: NDM-1 K. pneumoniae XJ155017; assay: MIC, broth microdilution; conditions: Klebsiella pneumoniae, 16 h
Source text: (§2) MIC values were identified through microdilution in sterilized 96-well polypropylene microtiter plates according to the broth microdilution guideline of the Clinical and Laboratory Standards Institute[30]. The test medium was Mueller–Hinton broth (MHB), and the strain concentrations were adjusted to 5 × 10^5 CFU/mL.

K. pneumoniae ATCC13883 [11] = assay: MIC, broth microdilution; conditions: Klebsiella pneumoniae, ATCC13883; MHB, 5 × 10^5 CFU/mL, 16 h, 37 °C; read-out: MIC
Source text: as §2

NDM-1 E. coli XJ141026 [12] = assay: MIC, broth microdilution; conditions: Escherichia coli, 16 h
Source text: as §2

E. coli ATCC25922 [13] = assay: MIC, broth microdilution; conditions: Escherichia coli, ATCC25922; MHB, 5 × 10^5 CFU/mL, 16 h, 37 °C; read-out: MIC
Source text: as §2

[14] = system: NDM-1 K. pneumoniae XJ155018; assay: MIC, broth microdilution; conditions: Klebsiella pneumoniae, 16 h
Source text: as §2

E. coli ATCC35218 = assay: MIC, broth microdilution; conditions: Escherichia coli, ATCC35218; MHB, 5 × 10^5 CFU/mL, 16 h, 37 °C; read-out: MIC
Source text: as §2

NDM-1 E. coli XJ141047 [15] = assay: MIC, broth microdilution; conditions: Escherichia coli, 16 h
Source text: as §2

[16] = system: NDM-1 K. pneumoniae XJ155020; assay: MIC, broth microdilution; conditions: Klebsiella pneumoniae, 16 h
Source text: as §2

NDM-1 E. coli XJ141015 [17] = assay: MIC, broth microdilution; conditions: Escherichia coli, 16 h
Source text: as §2

[18] = system: NDM-1 K. pneumoniae XJ155019; assay: MIC, broth microdilution; conditions: Klebsiella pneumoniae, 16 h
Source text: as §2

[19] = system: NDM-1 K. pneumoniae XJ155017; assay: Kirby Bauer disc diffusion
Source text: (§3) Supplementary Ta b l e 2. Identification and anti biotic susceptibility of NDM-1-producing K. pneumonia strains.
(§4) Antibiotics NDM-1 NDM-1 NDM-1 NDM-1 […]
(§5) Cefoperazone/ sul bact am KB 32 (S) 7 (R) 7 (R) 7 (R) 7 (R)
(§6) Nitrofurantoi n KB 21 (S) 7 (R) 9 (R) 10 (R) 9 (R) […]
(§7) R, resistant; S, sensitive; M IC , minimum inhibitory concentration; KB, Kirb y Baue r disc diffusion method .
(§8) The unit of M IC is “μg/mL”. The unit of KB is “mm”.

K. pneumoniae ATCC13883 [20] = assay: Kirby Bauer disc diffusion
Source text: as §3, §4, §5, §6, §7, §8

[21] = system: NDM-1 K. pneumoniae XJ155018; assay: Kirby Bauer disc diffusion
Source text: as §3, §4, §5, §6, §7, §8

[22] = system: NDM-1 K. pneumoniae XJ155020; assay: Kirby Bauer disc diffusion
Source text: as §3, §4, §5, §6, §7, §8

[23] = system: NDM-1 K. pneumoniae XJ155019; assay: Kirby Bauer disc diffusion
Source text: as §3, §4, §5, §6, §7, §8

NDM-1 E. coli XJ141026 [24] = assay: Kirby Bauer disc diffusion
Source text: (§9) Supplementary Table 1. Identification and antibiotic susceptibility of NDM-1-producing E. coli strains. […]
(§10) Cefoperazone/ sul bact am KB — — 7 (R) 7 (R) 7 (R)
(§11) Nitrofurantoi n KB — — 14 (R) 17 (R) 19 (S) […]
(§12) R, resistant; S, sensitive; M IC , minimum inhibitory concentration; KB, Kirb y Bauer disc diffusion method.
(§13) The unit of M IC is “ μ g/ mL”. The unit of KB is “ mm” .

NDM-1 E. coli XJ141047 [25] = assay: Kirby Bauer disc diffusion
Source text: as §9, §10, §11, §12, §13

NDM-1 E. coli XJ141015 [26] = assay: Kirby Bauer disc diffusion
Source text: as §9, §10, §11, §12, §13

[27] = MHB, 5 × 10^5 CFU/mL, 37 °C, read-out: MIC
[28] = Klebsiella pneumoniae, read-out: KB disc diffusion
[29] = Escherichia coli, read-out: KB disc diffusion

CC(C)(O/N=C(\C(=O)N[C@@H]1C(=O)N2C(C(=O)[O-])=C(C[n+]3ccccc3)CS[C@H]12)c1csc(N)n1)C(=O)O [Ceftazidime]
MIC ([1]; Klebsiella pneumoniae): > 16 µg/mL
susceptibility class (MIC) [1]: R
MIC (K. pneumoniae ATCC13883 [2]; Klebsiella pneumoniae, ATCC13883): ≤ 1 µg/mL
susceptibility class (MIC) (K. pneumoniae ATCC13883 [2]): S
MIC (NDM-1 E. coli XJ141026 [3]; Escherichia coli): > 16 µg/mL
susceptibility class (MIC) (NDM-1 E. coli XJ141026 [3]): R
MIC (E. coli ATCC25922 [4]; Escherichia coli, ATCC25922): ≤ 1 µg/mL
susceptibility class (MIC) (E. coli ATCC25922 [4]): S
MIC ([5]; Klebsiella pneumoniae): > 16 µg/mL
susceptibility class (MIC) [5]: R
MIC (NDM-1 E. coli XJ141047 [6]; Escherichia coli): > 16 µg/mL
susceptibility class (MIC) (NDM-1 E. coli XJ141047 [6]): R
MIC ([7]; Klebsiella pneumoniae): > 16 µg/mL
susceptibility class (MIC) [7]: R
MIC (NDM-1 E. coli XJ141015 [8]; Escherichia coli): > 16 µg/mL
susceptibility class (MIC) (NDM-1 E. coli XJ141015 [8]): R
MIC ([9]; Klebsiella pneumoniae): > 16 µg/mL
susceptibility class (MIC) [9]: R
MIC [10]: > 256 µg/mL
MIC (K. pneumoniae ATCC13883 [11]): < 0.125 µg/mL
MIC (NDM-1 E. coli XJ141026 [12]): > 256 µg/mL
MIC (E. coli ATCC25922 [13]): < 0.125 µg/mL
MIC [14]: > 256 µg/mL
MIC (E. coli ATCC35218): < 0.125 µg/mL
MIC (NDM-1 E. coli XJ141047 [15]): > 256 µg/mL
MIC [16]: > 256 µg/mL
MIC (NDM-1 E. coli XJ141015 [17]): > 256 µg/mL
MIC [18]: > 256 µg/mL

Cc1onc(-c2ccccc2)c1C(=O)N[C@@H]1C(=O)N2[C@@H]1SC(C)(C)[C@@H]2C(=O)O [Oxacillin]
MIC [10, 27]: > 256 µg/mL
MIC (K. pneumoniae ATCC13883 [11]): 64 µg/mL (≈ 159 µM)
MIC (NDM-1 E. coli XJ141026 [12]; [27]): > 256 µg/mL
MIC (E. coli ATCC25922 [13]): 64 µg/mL (≈ 159 µM)
MIC [14, 27]: > 256 µg/mL
MIC (E. coli ATCC35218): 256 µg/mL (≈ 638 µM)
MIC (NDM-1 E. coli XJ141047 [15]; [27]): > 256 µg/mL
MIC [16, 27]: > 256 µg/mL
MIC (NDM-1 E. coli XJ141015 [17]; [27]): > 256 µg/mL
MIC [18, 27]: > 256 µg/mL

O=C1CN(/N=C/c2ccc([N+](=O)[O-])o2)C(=O)N1 [Nitrofurantoin]
susceptibility class (KB) [19]: R
inhibition zone diameter (Kirby-Bauer disc diffusion) [19, 28]: 7 mM
susceptibility class (KB) (K. pneumoniae ATCC13883 [20]): S
inhibition zone diameter (K. pneumoniae ATCC13883 [20]; Klebsiella pneumoniae, ATCC13883, read-out: KB disc diffusion): 21 mM
susceptibility class (KB) [21]: R
inhibition zone diameter [21, 28]: 9 mM
susceptibility class (KB) [22]: R
disc diffusion inhibition zone diameter [22, 28]: 9 mM
susceptibility class (KB) [23]: R
Kb [23, 28]: 10 mM
susceptibility class (KB) (NDM-1 E. coli XJ141026 [24]): R
Kb (NDM-1 E. coli XJ141026 [24]; [29]): 17 mM
susceptibility class (KB) (NDM-1 E. coli XJ141047 [25]): S
inhibition zone diameter (NDM-1 E. coli XJ141047 [25]; [29]): 19 mM
susceptibility class (KB) (NDM-1 E. coli XJ141015 [26]): R
